{
  "source": "ChEMBL document CHEMBL1132057",
  "about": "“Effects of 3alpha- and 3beta-galactosylated alpha-galactosylceramides on the immune system” (1999)",
  "assay_type_in_all_cases": "functional",
  "key": {"[1]": {"species_on_record": "Mus musculus", "test": "Effect on the proliferation of murine spleen cells evaluated in terms of [3H]TdR uptake into the cells at a concentration of 10 ng/mL"}, "[2]": {"species_on_record": "Mus musculus", "test": "Effect on the proliferation of murine spleen cells evaluated in terms of [3H]TdR uptake into the cells at a concentration of 1 ng/mL"}, "[3]": {"species_on_record": "Mus musculus", "test": "Effect on the proliferation of murine spleen cells evaluated in terms of [3H]TdR uptake into the cells at a concentration of 100 ng/mL"}},
  "data": [
    {"smiles": "CCCCCCCCCCCCCCC[C@@H](O)[C@H](CO[C@H]1O[C@@H](CO)[C@H](O)[C@H](O)[C@@H]1O)NC(=O)CCCCCCCCCCCCC", "values": [
      {"measurement": "3H-TdR incorpolation", "setting": "[1]", "value": 44395, "unit": "c.p.m."},
      {"measurement": "3H-TdR incorpolation", "setting": "[2]", "value": 9018, "unit": "c.p.m."},
      {"measurement": "3H-TdR incorpolation", "setting": "[3]", "value": 44395, "unit": "c.p.m."}
    ]},
    {"smiles": "CCCCCCCCCCCCCCCCCCCCCC[C@@H](O)C(=O)N[C@@H](CO[C@H]1O[C@@H](CO)[C@H](O)[C@H](O)[C@@H]1O)[C@H](O)CCCCCCCCCCCCCCC", "values": [
      {"measurement": "3H-TdR incorpolation", "setting": "[1]", "value": 20283, "unit": "c.p.m."},
      {"measurement": "3H-TdR incorpolation", "setting": "[2]", "value": 9454, "unit": "c.p.m."},
      {"measurement": "3H-TdR incorpolation", "setting": "[3]", "value": 45966, "unit": "c.p.m."}
    ]},
    {"smiles": "CCCCCCCCCCCCCCC[C@@H](O[C@H]1O[C@@H](CO)[C@H](O)[C@H](O)[C@@H]1O)[C@H](CO)NC(=O)CCCCCCCCCCCCC", "values": [
      {"measurement": "3H-TdR incorpolation", "setting": "[1]", "value": 7412, "unit": "c.p.m."},
      {"measurement": "3H-TdR incorpolation", "setting": "[2]", "value": 7722, "unit": "c.p.m."},
      {"measurement": "3H-TdR incorpolation", "setting": "[3]", "value": 6141, "unit": "c.p.m."}
    ]},
    {"smiles": "CCCCCCCCCCCCCCCCCCCCCC[C@@H](O)C(=O)N[C@@H](CO[C@H]1O[C@@H](CO)[C@H](O)[C@H](O)[C@@H]1O)[C@@H](CCCCCCCCCCCCCCC)O[C@@H]1O[C@@H](CO)[C@H](O)[C@H](O)[C@@H]1O", "values": [
      {"measurement": "3H-TdR incorpolation", "setting": "[1]", "value": 13195, "unit": "c.p.m."},
      {"measurement": "3H-TdR incorpolation", "setting": "[2]", "value": 7892, "unit": "c.p.m."},
      {"measurement": "3H-TdR incorpolation", "setting": "[3]", "value": 45036, "unit": "c.p.m."}
    ]},
    {"smiles": "CCCCCCCCCCCCCCCCCCCCCC[C@@H](O)C(=O)N[C@@H](CO[C@H]1O[C@@H](CO)[C@H](O)[C@H](O)[C@@H]1O)[C@@H](CCCCCCCCCCCCCCC)O[C@H]1O[C@@H](CO)[C@H](O)[C@H](O)[C@@H]1O", "values": [
      {"measurement": "3H-TdR incorpolation", "setting": "[1]", "value": 34892, "unit": "c.p.m."},
      {"measurement": "3H-TdR incorpolation", "setting": "[2]", "value": 16138, "unit": "c.p.m."},
      {"measurement": "3H-TdR incorpolation", "setting": "[3]", "value": 44867, "unit": "c.p.m."}
    ]}
  ]
}
